{"source": "PubChem BioAssay AID2060897", "about": "(Molecular Pharmacology Branch, DTP, NCI, 2025);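 also: spheroids exposed to agents for one week before readout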;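 as to viability, T/C: percent viability relative to DMSO vehicle control wells as 100%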", "test_system": "966289-007-R4-J1-PDC complex spheroid viability", "experiment": "Anticancer human tumor 966289-007-R4-J1-PDC patient-derived pancreatic adenocarcinoma cell line growth inhibition [RAS]", "settings": "for IC50: curve of first compound; for viability, T/C: stronger effect = lower value", "procedure,_shortened": "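Multi-cell-type spheroids: tumor cells plus HUVEC endothelial cells and mesenchymal stem cells. RAS-pathway inhibitors were combined with targeted agents, each dosed in half-log steps down from clinical Cmax, or from 10 microM when Cmax was unknown.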", "data": [{"smiles": "CC(=O)OC12COC1CC(O)C1(C)C(=O)C(O)C3=C(C)C(OC(=O)C(O)C(NC(=O)OC(C)(C)C)c4ccccc4)CC(O)(C(OC(=O)c4ccccc4)C21)C3(C)C", "note": "(configuration not stated) + CCn1c(-c2cc(N3CCN(C)CC3)cnc2C(C)OC)c2c3cc(ccc31)-c1csc(n1)CC(NC(=O)C1CC1C)C(=O)N1CCCC(N1)C(=O)OCC(C)(C)C2", "values": [{"measurement": "IC50", "setting": "second compound 0.000949 µM", "result": "< 0.0316", "unit": "µM"}, {"measurement": "IC50", "setting": "second compound 0.003 µM", "result": "< 0.0316", "unit": "µM"}, {"measurement": "IC50", "setting": "second compound 0.00949 µM", "result": "< 0.0316", "unit": "µM"}, {"measurement": "IC50", "setting": "second compound 0.03 µM", "result": "< 0.0316", "unit": "µM"}, {"measurement": "IC50", "setting": "second compound 0.0949 µM", "result": "< 0.0316", "unit": "µM"}, {"measurement": "IC50", "setting": "second compound 0.3 µM", "result": "< 0.0316", "unit": "µM"}, {"measurement": "viability, T/C", "setting": "second compound 0.000949 µM, first compound 0.0316 µM", "result": 6.12, "unit": "%"}, {"measurement": "viability, T/C", "setting": "second compound 0.000949 µM, first compound 0.1 µM", "result": 13.9, "unit": "%"}, {"measurement": "viability, T/C", "setting": "second compound 0.000949 µM, first compound 0.316 µM", "result": 13.5, "unit": "%"}, {"measurement": "viability, T/C", "setting": "second compound 0.000949 µM, first compound 1 µM", "result": 21.5, "unit": "%"}, {"measurement": "viability, T/C", "setting": "second compound 0.000949 µM, first compound 3.16 µM", "result": 29.3, "unit": "%"}, {"measurement": "viability, T/C", "setting": "second compound 0.000949 µM, first compound 10 µM", "result": 55, "unit": "%"}, {"measurement": "viability, T/C", "setting": "second compound 0.003 µM, first compound 0.0316 µM", "result": 6.11, "unit": "%"}, {"measurement": "viability, T/C", "setting": "second compound 0.003 µM, first compound 0.1 µM", "result": 12.1, "unit": "%"}, {"measurement": "viability, T/C", "setting": "second compound 0.003 µM, first compound 0.316 µM", "result": 10.9, "unit": "%"}, {"measurement": "viability, T/C", "setting": "second compound 0.003 µM, first compound 1 µM", "result": 19.1, "unit": "%"}, {"measurement": "viability, T/C", "setting": "second compound 0.003 µM, first compound 3.16 µM", "result": 35.8, "unit": "%"}, {"measurement": "viability, T/C", "setting": "second compound 0.003 µM, first compound 10 µM", "result": 60.8, "unit": "%"}, {"measurement": "viability, T/C", "setting": "second compound 0.00949 µM, first compound 0.0316 µM", "result": 6.07, "unit": "%"}, {"measurement": "viability, T/C", "setting": "second compound 0.00949 µM, first compound 0.1 µM", "result": 11.1, "unit": "%"}, {"measurement": "viability, T/C", "setting": "second compound 0.00949 µM, first compound 0.316 µM", "result": 13.5, "unit": "%"}, {"measurement": "viability, T/C", "setting": "second compound 0.00949 µM, first compound 1 µM", "result": 16.5, "unit": "%"}, {"measurement": "viability, T/C", "setting": "second compound 0.00949 µM, first compound 3.16 µM", "result": 42.2, "unit": "%"}, {"measurement": "viability, T/C", "setting": "second compound 0.00949 µM, first compound 10 µM", "result": 54.5, "unit": "%"}, {"measurement": "viability, T/C", "setting": "second compound 0.03 µM, first compound 0.0316 µM", "result": 7.27, "unit": "%"}, {"measurement": "viability, T/C", "setting": "second compound 0.03 µM, first compound 0.1 µM", "result": 8.94, "unit": "%"}, {"measurement": "viability, T/C", "setting": "second compound 0.03 µM, first compound 0.316 µM", "result": 16.7, "unit": "%"}, {"measurement": "viability, T/C", "setting": "second compound 0.03 µM, first compound 1 µM", "result": 20.9, "unit": "%"}, {"measurement": "viability, T/C", "setting": "second compound 0.03 µM, first compound 3.16 µM", "result": 40.2, "unit": "%"}, {"measurement": "viability, T/C", "setting": "second compound 0.03 µM, first compound 10 µM", "result": 60.1, "unit": "%"}, {"measurement": "viability, T/C", "setting": "second compound 0.0949 µM, first compound 0.0316 µM", "result": 5.65, "unit": "%"}, {"measurement": "viability, T/C", "setting": "second compound 0.0949 µM, first compound 0.1 µM", "result": 11.1, "unit": "%"}, {"measurement": "viability, T/C", "setting": "second compound 0.0949 µM, first compound 0.316 µM", "result": 13.4, "unit": "%"}, {"measurement": "viability, T/C", "setting": "second compound 0.0949 µM, first compound 1 µM", "result": 19.3, "unit": "%"}, {"measurement": "viability, T/C", "setting": "second compound 0.0949 µM, first compound 3.16 µM", "result": 51.7, "unit": "%"}, {"measurement": "viability, T/C", "setting": "second compound 0.0949 µM, first compound 10 µM", "result": 59.8, "unit": "%"}, {"measurement": "viability, T/C", "setting": "second compound 0.3 µM, first compound 0.0316 µM", "result": 7.9, "unit": "%"}, {"measurement": "viability, T/C", "setting": "second compound 0.3 µM, first compound 0.1 µM", "result": 14.3, "unit": "%"}, {"measurement": "viability, T/C", "setting": "second compound 0.3 µM, first compound 0.316 µM", "result": 18.4, "unit": "%"}, {"measurement": "viability, T/C", "setting": "second compound 0.3 µM, first compound 1 µM", "result": 23.5, "unit": "%"}, {"measurement": "viability, T/C", "setting": "second compound 0.3 µM, first compound 3.16 µM", "result": 41.7, "unit": "%"}, {"measurement": "viability, T/C", "setting": "second compound 0.3 µM, first compound 10 µM", "result": 56, "unit": "%"}]}]}
